Laboratory results reported in PMC6225228, “Design, Synthesis and Evaluation of N-pyrazinylbenzamides as Potential Antimycobacterial Agents” (Molecules : A Journal of Synthetic Chemistry and Natural …, 2018).
In brackets after ≈: the same amount, converted by molar mass. Read-outs that look alike come from different tables or passages of the source. Marks after values point to notes of the source that are not given here.

How the values were obtained:
[1] = test system: Mycobacterium tuberculosis H37Rv (Mtb); settings: cited from earlier work; for Amides MIC (value in parentheses): second value in parentheses
[2] = test system: Mycobacterium tuberculosis H37Rv (Mtb); settings: cited from earlier work
[3] = test system: Pseudomonas aeruginosa CCM 1961; experiment: Antibacterial microdilution broth, PA; format: cell-based; settings: Pseudomonas aeruginosa, read-out: MIC PA
[4] = test system: M. avium ssp. avium CNCTC My 80/72 (ATCC 15769); experiment: Antimycobacterial microdilution MABA, M. avium; format: cell-based, Mycobacterium avium; settings: for MIC: Mycobacterium avium, ATCC15769, pH 6.6, read-out: M. avium ATCC 15769 MIC
[5] = test system: Candida albicans ATCC 44859; experiment: Antifungal microdilution broth, CA; format: cell-based; settings: Candida albicans, read-out: MIC CA
[6] = test system: Lichtheimia corymbifera 272; experiment: Antifungal microdilution broth, LC; format: cell-based; settings: read-out: MIC LC
[7] = test system: Staphylococcus aureus CCM 4516/08; experiment: Antibacterial microdilution broth, SA; format: cell-based; settings: Staphylococcus aureus
[8] = test system: Mycobacterium tuberculosis H37Rv CNCTC My 331/88 (ATCC 27294); experiment: Antimycobacterial microdilution MABA, M. tuberculosis; format: cell-based; settings: for Mtb H37Rv ATCC 27294 MIC: Middlebrook 7H9 with OADC growth supplement, pH = 6.6, MABA; for MIC: Mycobacterium tuberculosis, read-out: Mtb H37Rv ATCC 27294 MIC, Middlebrook 7H9 with OADC growth supplement, pH = 6.6, MABA
[9] = test system: Candida krusei E28; experiment: Antifungal microdilution broth, CK; format: cell-based; settings: Pichia kudriavzevii, read-out: MIC CK
[10] = test system: Escherichia coli CCM 4517; experiment: Antibacterial microdilution broth, EC; format: cell-based; settings: Escherichia coli, read-out: MIC EC
[11] = test system: Candida glabrata 20/I; experiment: Antifungal microdilution broth, CG; format: cell-based; settings: Nakaseomyces glabratus, 20/I, read-out: MIC CG
[12] = human, HepG2 cells
[13] = test system: Staphylococcus epidermidis H 6966/08; experiment: Antibacterial microdilution broth, SE; format: cell-based; settings: read-out: MIC SE
[14] = test system: Trichosporon asahii 1188; experiment: Antifungal microdilution broth, TA; format: cell-based; settings: read-out: MIC TA
[15] = test system: Mycobacterium smegmatis CCM 4622 (ATCC 607); experiment: Antimycobacterial microdilution, M. smegmatis; format: cell-based; settings: Mycolicibacterium smegmatis, read-out: M. smeg. ATCC 607 MIC
[16] = test system: Trichophyton interdigitale 445; experiment: Antifungal microdilution broth, TI; format: cell-based; settings: read-out: MIC TI
[17] = test system: Candida tropicalis 156; experiment: Antifungal microdilution broth, CT; format: cell-based; settings: read-out: MIC CT
[18] = test system: Staphylococcus aureus H 5996/08 methicillin resistant; experiment: microbe, parasite or virus in culture; format: cell-based; settings: for MIC: Staphylococcus aureus, MRSA, read-out: MIC MRSA
[19] = test system: Aspergillus fumigatus 231; experiment: Antifungal microdilution broth, AF; format: cell-based; settings: read-out: MIC AF
[20] = test system: M. kansasii CNCTC My 235/80 (ATCC 12478); experiment: Antimycobacterial microdilution MABA, M. kansasii; format: cell-based, Mycobacterium kansasii; settings: for MIC: Mycobacterium kansasii, ATCC12478, pH 6.6, read-out: M. kans. ATCC 12478 MIC, Middlebrook 7H9 with OADC, pH 6.6, MABA
[21] = test system: Enterococcus sp. J 14365/08; experiment: Antibacterial microdilution broth, EF; format: cell-based; settings: Enterococcus, read-out: MIC EF
[22] = Šula's semisynthetic medium, pH = 5.6, turbidity, first value
[23] = Šula's semisynthetic medium, pH = 5.6, turbidity
[24] = Middlebrook 7H9, pH = 6.6, MABA
[25] = Middlebrook 7H9 with OADC, pH 6.6, MABA
[26] = Lichtheimia corymbifera, 272, 24 h
[27] = Lichtheimia corymbifera, 272, 48 h
[28] = CCM4516, 24 h, read-out: MIC SA, 24 h
[29] = CCM4516, 48 h, read-out: MIC SA, 48 h
[30] = Staphylococcus epidermidis, H6966/08, 24 h
[31] = Staphylococcus epidermidis, H6966/08, 48 h
[32] = Trichosporon asahii, 1188, 24 h
[33] = Trichosporon asahii, 1188, 48 h
[34] = Trichophyton interdigitale, 445, 72 h
[35] = Trichophyton interdigitale, 445, 120 h
[36] = Aspergillus fumigatus, 231, 24 h
[37] = Aspergillus fumigatus, 231, 48 h

O=C(Nc1cccc(Cl)c1)c1cnc(Cl)cn1 [Amide R1=5-Cl R2=3-Cl]
Amides MIC [1, 22]: 6.25 µg/mL
Amides MIC (value in parentheses) [1, 23]: 3.13 µg/mL

COc1cccc(NC(=O)c2cncc(Cl)n2)c1 [Amide R1=6-Cl R2=3-OCH3]
Amides Inhibition (%) at 6.25 μg/mL (TAACF) [2]: 2 [31] %

O=C(Nc1cccc(C(F)(F)F)c1)c1cncc(Cl)n1 [Amide R1=6-Cl R2=3-CF3]
Amides Inhibition (%) at 6.25 μg/mL (TAACF) [2]: 77 [32] %

COc1ccccc1NC(=O)c1cncc(Cl)n1 [Amide R1=6-Cl R2=2-OCH3]
Amides Inhibition (%) at 6.25 μg/mL (TAACF) [2]: 6 [35] %

COc1cccc(NC(=O)c2cnccn2)c1 [Amide R1=H R2=3-OCH3]
Amides MIC [1, 24]: >100 ^b [27] μg/mL

CC(=O)Oc1ccc(C(=O)Nc2cnc(Cl)cn2)cc1 [Compound 2d-Ac]
MIC ([3]; CCM1961, 72 h): > 125 µM
MIC ([3]; CCM1961, 120 h): > 125 µM
M. avium ATCC 15769 MIC [4, 25]: >100 µg/mL
MIC [4]: > 100 µg/mL
MIC ([5]; ATCC44859, 24 h): > 125 µM
MIC ([5]; ATCC44859, 48 h): > 125 µM
MIC [6, 26]: > 125 µM
MIC [6, 27]: > 125 µM
MIC [7, 28]: 0.98 µM (≈ 0.286 µg/mL)
MIC [7, 29]: 0.98 µM (≈ 0.286 µg/mL)
Mtb H37Rv ATCC 27294 MIC [8]: >100 µg/mL
MIC [8]: > 100 µg/mL
Mtb MIC ([8]; molar concentration): inactive
MIC ([9]; E28, 24 h): > 125 µM
MIC ([9]; E28, 48 h): > 125 µM
MIC ([10]; CCM4517, 24 h): > 125 µM
MIC ([10]; CCM4517, 48 h): > 125 µM
MIC ([11]; 24 h): > 125 µM
MIC ([11]; 48 h): > 125 µM
IC50 at 24 h [12]: > 500 µM
MIC ([13]; 24 h): >125 µM
MIC ([13]; 48 h): >125 µM
MIC [13, 30]: > 125 µM
MIC [13, 31]: > 125 µM
MIC [14, 32]: > 125 µM
MIC [14, 33]: > 125 µM
MIC [15]: 250 µg/mL (≈ 857 µM)
MIC [16, 34]: > 125 µM
MIC [16, 35]: > 125 µM
melting point: 170.9 to 171.8 °C
MIC ([17]; Candida tropicalis, 156, 24 h): > 125 µM
MIC ([17]; Candida tropicalis, 156, 48 h): > 125 µM
MIC MRSA ([18]; 24 h): >125 µM
MIC MRSA ([18]; 48 h): >125 µM
MIC ([18]; 24 h): > 125 µM
MIC ([18]; 48 h): > 125 µM
MIC [19, 36]: > 125 µM
MIC [19, 37]: > 125 µM
M. kans. ATCC 12478 MIC [20, 25]: >100 µg/mL
MIC [20]: > 100 µg/mL
MIC ([21]; SP.J14365/08, 24 h): > 125 µM
MIC ([21]; SP.J14365/08, 48 h): > 125 µM

O=C(Nc1ccccc1Cl)c1cnccn1 [Amide R1=H R2=2-Cl]
Amides MIC ([1]; Šula's semisynthetic medium, pH = 5.6, growth indicated by turbidity): 50 ^c [19] μg/mL

O=C(Nc1cccc(Cl)c1)c1cncc(Cl)n1 [Amide R1=6-Cl R2=3-Cl]
Amides Inhibition (%) at 6.25 μg/mL (TAACF) [2]: 14 [33] %

O=C(Nc1ccccc1)c1cnccn1 [Amide R1=H R2=H]
Amides MIC [1, 24]: >100 ^b [27] μg/mL
Amides Inhibition (%) at 6.25 μg/mL (TAACF) [2]: 0 [31] %

O=C(Nc1ccc(Cl)cc1)c1cncc(Cl)n1 [Amide R1=6-Cl R2=4-Cl]
Amides Inhibition (%) at 6.25 μg/mL (TAACF) [2]: 65 [33] %

O=C(Nc1cccc(C(F)(F)F)c1)c1cnc(Cl)cn1 [Amide R1=5-Cl R2=3-CF3]
Amides MIC [1, 22]: 3.13 µg/mL
Amides MIC (value in parentheses) [1, 23]: 6.25 µg/mL

O=C(Nc1ccc(Br)cc1)c1cnc(Cl)cn1 [Amide R1=5-Cl R2=4-Br]
Amides MIC [1, 22]: 3.13 ^c [18] μg/mL

O=C(Nc1cnc(Cl)cn1)c1ccc(Br)cc1 [Compound 2m]
MIC ([3]; CCM1961, 72 h): > 125 µM
MIC ([3]; CCM1961, 120 h): > 125 µM
MIC [4]: > 100 µg/mL
MIC ([5]; ATCC44859, 24 h): > 125 µM
MIC ([5]; ATCC44859, 48 h): > 125 µM
MIC [6, 26]: > 125 µM
MIC [6, 27]: > 125 µM
MIC [7, 28]: > 125 µM
MIC [7, 29]: > 125 µM
Mtb H37Rv ATCC 27294 MIC [8]: >100 µg/mL
MIC [8]: > 100 µg/mL
MIC ([9]; E28, 24 h): > 125 µM
MIC ([9]; E28, 48 h): > 125 µM
MIC ([10]; CCM4517, 24 h): > 125 µM
MIC ([10]; CCM4517, 48 h): > 125 µM
MIC ([11]; 24 h): > 125 µM
MIC ([11]; 48 h): > 125 µM
MIC [13, 30]: > 125 µM
MIC [13, 31]: > 125 µM
MIC [14, 32]: > 125 µM
MIC [14, 33]: > 125 µM
MIC [15]: ≥ 500 µg/mL
MIC [16, 34]: > 125 µM
MIC [16, 35]: > 125 µM
melting point: 229.2 to 230.5 °C
MIC ([17]; Candida tropicalis, 156, 24 h): > 125 µM
MIC ([17]; Candida tropicalis, 156, 48 h): > 125 µM
MIC ([18]; 24 h): > 125 µM
MIC ([18]; 48 h): > 125 µM
MIC [19, 36]: > 125 µM
MIC [19, 37]: > 125 µM
MIC [20]: > 100 µg/mL
MIC ([21]; SP.J14365/08, 24 h): > 125 µM
MIC ([21]; SP.J14365/08, 48 h): > 125 µM
